Laboratory results from publication PMC6269873, “Substituted 3-Benzylcoumarins as Allosteric MEK1 Inhibitors: Design, Synthesis and Biological Evaluation as Antiviral Agents” (Molecules, 2013).

Target: phosphorylated MEK1 (Homo sapiens, UniProt Q02750)
Experiment: MEK1 binding assay (HTRF, tracer displacement)
Settings: for inhibition at 2 µM: read-out: % binding (2 µM); for inhibition at 20 µM: read-out: % binding (20 µM)
Description: The homogeneous time resolved fluorescence (HTRF) assay was performed on a Proxiplate-384 F plus solid back plate (Perkin Elmer, Waltham, MA. USA) with 5 nM GST tagged phosphorylated MEK1 (GST-MEK1), 2 nM europium-labeled anti-GST antibody (Eu-anti-GST), 20 nM kinase tracer 236 and test compound at a variety of concentrations. In the reaction mixture, GST-MEK1 forms a complex with the Eu-anti-GST and the tracer. Excitation of europium (the donor) using a 340-nm excitation filter results in energy transfer to the fluorophore of the tracer. This energy transfer is detected by an increase in the fluorescence emission of the tracer at 665 nm and a decrease in the fluorescence emission of europium at 615 nm. The FRET ratio was calculated by dividing the emission signal at 665 nm by the emission signal at 615 nm. A competitor compound such as a MEK inhibitor replaces the tracer from the complex and decreases the FRET ratio accordingly. The plate was incubated in dark at room temperature for 30 min before measuring the fluorescent emission of each well at 665 and 615 nm using a 340-nm excitation filter, 100-µs delay time, and 200-µs integration time, on a PHERAStar plate reader (BMG Labtech, Durham, NC, USA). […] Data shown as %Inhibition normalized to AZD6244 at 100 µM.

Chain of phosphorylated MEK1 (Q02750 whole entry): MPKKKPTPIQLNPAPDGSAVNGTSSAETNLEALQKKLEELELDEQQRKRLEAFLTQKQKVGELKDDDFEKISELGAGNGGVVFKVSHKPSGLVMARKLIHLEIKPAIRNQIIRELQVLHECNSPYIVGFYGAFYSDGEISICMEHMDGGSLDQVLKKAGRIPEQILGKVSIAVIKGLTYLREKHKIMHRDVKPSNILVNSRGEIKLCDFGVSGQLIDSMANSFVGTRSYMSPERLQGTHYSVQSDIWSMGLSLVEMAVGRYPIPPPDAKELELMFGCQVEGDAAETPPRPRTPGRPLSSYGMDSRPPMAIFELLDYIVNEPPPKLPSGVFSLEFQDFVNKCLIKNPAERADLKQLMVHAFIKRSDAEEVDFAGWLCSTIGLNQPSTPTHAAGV

Compound	inhibition at 100 µM	inhibition at 2 µM	inhibition at 20 µM	binding affinity (in words)
Cn1cnc2c(F)c(Nc3ccc(Br)cc3Cl)c(C(=O)NOCCO)cc21 [AZD6244, reference compound]	100%			
Cc1c(Cc2ccccc2)c(=O)oc2cc(O)ccc12 [Compound 4b, 3-Benzyl-7-hydroxy-4-methyl-2H-chromen-2-one]		-0.81%	-6.03%	
Cc1c(Cc2ccccc2)c(=O)oc2cc(O)c(Cl)cc12 [Compound 4c, 3-Benzyl-6-chloro-7-hydroxy-4-methyl-2H-chromen-2-one]		15.8%	5.1%	
CN(C)C(=O)Oc1ccc2cc(Cc3ccccc3)c(=O)oc2c1 [Compound 12, 3-benzyl-7-N,N-dimethylcarbamoyloxyl-2H-chromen-2-one]		31.6%	25.6%	disappearance of affinity
Cc1c(Cc2ccccc2)c(=O)oc2cc(OS(=O)(=O)c3ccccc3)ccc12 [Compound 69, 3-Benzyl-4-methyl-2-oxo-2H-chromen-7-yl benzenesulfonate]		-11.3%	2.32%	
Cc1c(Cc2ccccc2)c(=O)oc2cc(OS(=O)(=O)c3ccccc3)c(Cl)cc12 [Compound 70, 3-Benzyl-6-chloro-4-methyl-2-oxo-2H-chromen-7-yl benzenesulfonate]		29.9%	24.5%	
CCc1c(Cc2ccccc2)c(=O)oc2cc(OS(=O)(=O)c3ccccc3)ccc12 [Compound 71, 3-Benzyl-4-ethyl-2-oxo-2H-chromen-7-yl benzenesulfonate]		31.1%	-2.35%	
CCCc1c(Cc2ccccc2)c(=O)oc2cc(OS(=O)(=O)c3ccccc3)ccc12 [Compound 72, 3-Benzyl-2-oxo-4-propyl-2H-chromen-7-yl benzenesulfonate]		26%	14%	
CCc1c(Cc2ccc(F)cc2)c(=O)oc2cc(OS(=O)(=O)c3ccccc3)ccc12 [Compound 73, 4-Ethyl-3-(4-fluorobenzyl)-2-oxo-2H-chromen-7-yl benzenesulfonate]		16.6%	7.4%	inactive
Cc1c(Cc2ccc(F)cc2)c(=O)oc2cc(OS(=O)(=O)c3ccccc3)ccc12 [Compound 74, 3-(4-Fluorobenzyl)-4-methyl-2-oxo-2H-chromen-7-yl benzenesulfonate]		21.4%	17%	
CCCc1c(Cc2ccc(F)cc2)c(=O)oc2cc(OS(=O)(=O)c3ccccc3)ccc12 [Compound 75, 3-(4-Fluorobenzyl)-2-oxo-4-propyl-2H-chromen-7-yl benzenesulfonate]		21.6%	13.8%	
CCc1c(Cc2ccccc2)c(=O)oc2cc(OS(=O)(=O)c3ccc(C)cc3)ccc12 [Compound 78, 3-Benzyl-4-ethyl-2-oxo-2H-chromen-7-yl 4-methylbenzenesulfonate]		33.2%	4.76%	
CCCc1c(Cc2ccccc2)c(=O)oc2cc(OS(=O)(=O)c3ccc(C)cc3)ccc12 [Compound 79, 3-Benzyl-2-oxo-4-propyl-2H-chromen-7-yl 4-methylbenzenesulfonate]		24.6%	11.7%	
CCc1c(Cc2ccc(F)cc2)c(=O)oc2cc(OS(=O)(=O)c3ccc(C)cc3)ccc12 [Compound 80, 4-Ethyl-3-(4-fluorobenzyl)-2-oxo-2H-chromen-7-yl 4-methylbenzenesulfonate]		33.1%	16.5%	inactive
CCCc1c(Cc2ccc(F)cc2)c(=O)oc2cc(OS(=O)(=O)c3ccc(C)cc3)ccc12 [Compound 82, 3-(4-Fluorobenzyl)-2-oxo-4-propyl-2H-chromen-7-yl 4-methylbenzenesulfonate]		37.5%	45.9%	
O=C(c1ccccc1)c1cc2ccc(O)cc2oc1=O [Compound 85, 3-Benzoyl-7-hydroxycoumarin]		23%	20.5%	
